Data reported in US20250197374A1, “WEE1 DEGRADING COMPOUNDS AND USES THEREOF” (BRISTOL-MYERS SQUIBB COMPANY, priority 2023, published 2025).
pEC50: −log10 of the molar value.

Columns and labels:
Format in all cases: cell-based
MDA-MB-231 cells = assay: MDA-MB-231 cell proliferation assay (Cell-Titer-Glo, 120 hr); details: for pEC50: Homo sapiens, MDA-MB-231, 120 h, read-out: MDA-MB 231 Cell Prolif. 120 hr EC50; for MDA-MB 231 Cell Prolif. 120 hr YMin (%): minimal percent of DMSO control observed
In short: (§1)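 Growth inhibition was read as CellTiter-Glo luminescence after 120 h at 37 °C in RPMI/10% FBS, with 400 MKN45 or 800 MDA-MB-231 cells seeded per well. Compounds were tested in 10-point half-log series starting at 1 or 10 uM (0.1% DMSO), in triplicate for MKN45 and duplicate for MDA-MB-231. EC50 values are four-parameter fits to %DMSO control, and Ymin-obs is the minimal observed %DMSO.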

WEE1 = target: T1, WEE1 (Homo sapiens, UniProt P30291+Q96SW2); assay: WEE1-ePL degradation assay (293T-LentiX, InCELL Hunter luminescence, 4 hr); details: for DC50: LentiX-HEK293T cells expressing WEE1-ePL, 4 hr incubation, read-out: 293T-LentiX WEE1-ePL Degradation 4 hr EC50; for 293T-LentiX WEE1-ePL Degradation 4 hr YMin (%): lower limit of fit, % of DMSO control signal remaining
T1 construct: C-terminal ePL-tagged (DiscoverX, Fremont, CA) full-length WEE1 expression construct; expressed in transfected cells; host or cells: LentiX-HEK293T (Invitrogen), lentivirally transduced; the cells also over-express GSPT1-GN
T1 sequence (P30291 whole entry): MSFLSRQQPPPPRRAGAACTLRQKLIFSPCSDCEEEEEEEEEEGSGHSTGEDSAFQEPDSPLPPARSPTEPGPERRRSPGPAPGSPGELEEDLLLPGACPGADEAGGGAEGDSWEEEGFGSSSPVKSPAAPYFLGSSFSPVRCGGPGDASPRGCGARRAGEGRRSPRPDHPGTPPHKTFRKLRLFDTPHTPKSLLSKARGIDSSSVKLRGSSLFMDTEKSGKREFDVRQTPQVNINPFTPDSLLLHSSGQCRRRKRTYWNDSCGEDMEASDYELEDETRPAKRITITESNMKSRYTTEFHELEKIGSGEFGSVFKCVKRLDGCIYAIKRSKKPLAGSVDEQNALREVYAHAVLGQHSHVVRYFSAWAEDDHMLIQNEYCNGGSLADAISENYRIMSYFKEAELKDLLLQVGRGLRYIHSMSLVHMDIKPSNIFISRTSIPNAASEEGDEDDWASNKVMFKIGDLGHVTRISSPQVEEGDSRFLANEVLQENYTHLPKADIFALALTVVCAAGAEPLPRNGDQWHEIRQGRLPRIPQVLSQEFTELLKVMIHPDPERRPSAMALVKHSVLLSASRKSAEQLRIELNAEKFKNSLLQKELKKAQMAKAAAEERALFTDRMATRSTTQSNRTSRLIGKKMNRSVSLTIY
T1 sequence (Q96SW2 whole entry): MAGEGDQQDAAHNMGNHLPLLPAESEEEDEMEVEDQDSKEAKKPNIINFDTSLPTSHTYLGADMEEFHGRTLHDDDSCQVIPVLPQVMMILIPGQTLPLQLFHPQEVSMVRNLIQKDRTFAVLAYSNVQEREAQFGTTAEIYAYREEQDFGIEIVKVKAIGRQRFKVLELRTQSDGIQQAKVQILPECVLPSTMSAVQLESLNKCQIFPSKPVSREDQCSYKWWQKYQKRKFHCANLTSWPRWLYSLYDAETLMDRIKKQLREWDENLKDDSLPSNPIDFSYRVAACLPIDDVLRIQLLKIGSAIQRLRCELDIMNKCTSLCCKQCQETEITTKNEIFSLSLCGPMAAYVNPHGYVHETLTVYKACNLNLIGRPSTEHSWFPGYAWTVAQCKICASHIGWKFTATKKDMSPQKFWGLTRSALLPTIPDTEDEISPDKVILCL
T1 sequence (Q16531 whole entry partner): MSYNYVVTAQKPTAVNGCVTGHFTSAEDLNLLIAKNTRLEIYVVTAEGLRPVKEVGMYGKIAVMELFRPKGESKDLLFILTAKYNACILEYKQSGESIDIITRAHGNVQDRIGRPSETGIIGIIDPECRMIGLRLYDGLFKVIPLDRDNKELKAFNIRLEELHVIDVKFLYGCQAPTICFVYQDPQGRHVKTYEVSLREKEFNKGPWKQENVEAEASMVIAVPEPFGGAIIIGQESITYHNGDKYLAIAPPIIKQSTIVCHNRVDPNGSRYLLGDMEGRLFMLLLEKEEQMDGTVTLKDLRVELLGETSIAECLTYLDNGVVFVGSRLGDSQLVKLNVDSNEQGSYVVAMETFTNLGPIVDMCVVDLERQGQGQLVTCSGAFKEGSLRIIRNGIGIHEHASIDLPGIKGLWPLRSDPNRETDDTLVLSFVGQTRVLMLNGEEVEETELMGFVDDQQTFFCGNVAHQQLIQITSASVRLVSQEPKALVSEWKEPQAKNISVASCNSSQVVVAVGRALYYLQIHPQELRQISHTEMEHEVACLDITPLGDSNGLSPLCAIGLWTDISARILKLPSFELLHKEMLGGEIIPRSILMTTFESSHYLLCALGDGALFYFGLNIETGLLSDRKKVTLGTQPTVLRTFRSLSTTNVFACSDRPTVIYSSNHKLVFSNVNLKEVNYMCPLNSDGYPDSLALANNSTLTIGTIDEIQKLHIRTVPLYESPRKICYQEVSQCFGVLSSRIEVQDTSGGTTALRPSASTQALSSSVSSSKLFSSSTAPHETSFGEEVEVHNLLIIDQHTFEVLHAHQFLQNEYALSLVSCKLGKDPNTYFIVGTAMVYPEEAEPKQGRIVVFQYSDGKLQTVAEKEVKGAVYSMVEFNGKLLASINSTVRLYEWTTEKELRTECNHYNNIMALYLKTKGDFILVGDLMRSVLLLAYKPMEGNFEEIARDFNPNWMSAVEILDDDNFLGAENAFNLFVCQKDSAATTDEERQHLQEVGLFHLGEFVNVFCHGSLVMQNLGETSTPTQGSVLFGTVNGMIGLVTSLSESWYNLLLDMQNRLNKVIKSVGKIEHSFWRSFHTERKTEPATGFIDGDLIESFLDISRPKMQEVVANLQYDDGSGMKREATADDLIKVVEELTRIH
In short: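 EC50 comes from a four-parameter logistic fit of ePL luminescence (InCELL Hunter), with DMSO control defining Ymax. Compounds ran as 10-point 3-fold dilutions from 1 or 10 µM for 4 h at 37 °C. Cells were HEK293T-LentiX with ePL-tagged full-length WEE1 and over-expressed Cereblon-resistant GSPT1-GN.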

MKN45 cells = assay: MKN45 cell proliferation assay (Cell-Titer-Glo, 120 hr); details: for pEC50: Homo sapiens, MKN-45, 120 h, read-out: MKN45 Cell Prolif. 120 hr EC50; for MKN45 Cell Prolif. 120 hr YMin (%): minimal percent of DMSO control observed
In short: as §1

| Compound | pEC50 (MDA-MB-231 cells) | MDA-MB 231 Cell Prolif. 120 hr YMin (%) (MDA-MB-231 cells) | DC50 (WEE1) [nM] | 293T-LentiX WEE1-ePL Degradation 4 hr YMin (%) (WEE1) | pEC50 (MKN45 cells) | MKN45 Cell Prolif. 120 hr YMin (%) (MKN45 cells) |
| --- | --- | --- | --- | --- | --- | --- |
| COC[C@@H]1CN(Cc2cc(F)c3nc(N4CCOC5(COC5)C4)ncc3c2)C[C@H]1Oc1ccc2c(c1)CN([C@H]1CCC(=O)NC1=O)C2=O [Example 80, (3S)-3-(5-{[(3S,4S)-1-[(2-{2,5-dioxa-8-azaspiro[3.5]nonan-8-yl}-8-fluoroquinazolin-6-yl)methyl]-4-(methoxymethyl)pyrrolidin-3-yl]oxy}-1-oxo-2,3-dihydro-1H-isoindol-2-yl)piperidine-2,6-dione] | 7.38 | 23.5 | 2 | 29.7 | 8.70 | 10.3 |
| O=C1CC[C@H](N2Cc3cc(O[C@@H]4CN(Cc5cc(F)c6nc(C7CCOCC7)ccc6c5)C[C@H]4c4ccccc4)ccc3C2=O)C(=O)N1 (relative stereo) [Example 116, (S)-3-(5-(((3S*,4R*)-1-((8-fluoro-2-(tetrahydro-2H-pyran-4-yl)quinolin-6-yl)methyl)-4-phenylpyrrolidin-3-yl)oxy)-1-oxoisoindolin-2-yl)piperidine-2,6-dione] | 5.59 | 89.1 |  | 85.0 | 9.00 | 83.5 |
| COC[C@@H]1CN(Cc2cc3ccc(C4CCC(O)CC4)cc3cn2)C[C@H]1Oc1ccc2c(c1)CN([C@H]1CCC(=O)NC1=O)C2=O (relative stereo) [Example 51, rel-(S)-3-(5-(((3S,4S)-1-((7-(4-hydroxycyclohexyl)isoquinolin-3-yl)methyl)-4-(methoxymethyl)pyrrolidin-3-yl)oxy)-1-oxoisoindolin-2-yl)piperidine-2,6-dione] | 7.82 | 24.8 | 1 | 29.0 | 9.00 | 9.9 |
| COC[C@@H]1CN(Cc2cc(F)c3nc(C4CN(CC(C)(C)O)C4)ccc3c2)C[C@H]1Oc1ccc2c(c1)CN([C@H]1CCC(=O)NC1=O)C2=O [Example 120, (3S)-3-(5-{[(3S,4S)-1-({8-fluoro-2-[1-(2-hydroxy-2-methylpropyl)azetidin-3-yl]quinolin-6-yl}methyl)-4-(methoxymethyl)pyrrolidin-3-yl]oxy}-1-oxo-2,3-dihydro-1H-isoindol-2-yl)piperidine-2,6-dione] | 7.20 | 30.0 | 4 | 17.2 | 8.70 | 7.8 |
